Results reported in publication PMC11955804, “Histidine-rich enantiomeric peptide coacervates enhance antigen sequestration and presentation to T cells” (Chemical Science, 2025).

Tests used:
[1] = tested on: BMDCs overlaid with DOBW cells; experiment: In vitro antigen presentation assay, MHC class II (BMDCs + DOBW hybridoma, IL-2 ELISA); conditions: BMDCs pre-treated 1 h: Chlorpromazine 30 µM, Dynasore 50 µM, Wortmannin 10 µM, Methyl β-CD 2 mM; OVA-loaded coacervates; DOBW overlay 16 h
Procedure: To test internalization mechanisms, we utilized in vitro antigen presentation assays (Fig. 4A). Here, bone marrow-derived dendritic cells (BMDCs) are treated with coacervates loaded with the model antigen ovalbumin (OVA). […] Secretion of IL-2 in response to peptide-MHC recognition is an indirect measure of coacervate uptake and can be quantified using ELISA (enzyme-linked immunosorbent assay) (Fig. 4A). […] We next used pharmacological inhibitors of endocytic mechanisms to explore mechanisms of cell entry (Fig. 4E). BMDCs were treated with inhibitors of clathrin-mediated endocytosis (chlorpromazine, CPZ),[58] dynamin-dependent endocytosis (dynasore, Dyn),[59] macropinocytosis (wortmannin, Wort),[60] cholesterol (methyl β-CD),[61] and IPA3 the regulatory domain of PAK1 (IPA-3)[62] for one h prior to antigen presentation assays.
Uptake of coacervates by BMDCs was measured using in vitro antigen presentation assays.
BMDCs were plated in 96-well round-bottom plates (1×10^5 cells/well) and maintained at 4°C or
treated with 10 mM deoxy glucose and 10 mM sodium azide in PBS (ATP depletion) for 1 h prior
to addition of OVA-loaded coacervates. Final OVA concentration was 1 g/mL for time-
dependent measurements and 10 g/mL for comparison between enantiomers. Cells maintained at
37°C and complete RPMI media served as controls. Soluble OVA and PBS treated cells were used as controls for antigen delivery. Following treatment (2 h, 4 h, 24 h, 48 h, or 72 h), BMDCs were
washed to remove extracellular coacervates and DOBW hybridoma cells (1:5, DC: DOBW) were
overlaid for 16 h. The cells were then centrifuged at 300 × g for 5 min, and the supernatant was
collected for IL-2 quantitation by ELISA according to the manufacturer protocol (Biotechne,
#DY402). The amount of IL-2 produced under each condition was measured.
Inhibition of coacervate uptake was measured by adding the inhibitors 1 h
prior to coacervate treatment for 24 h followed by hybridoma overlay and IL-2 measurements.

[2] = tested on: BMDCs overlaid with OVA1.3 hybridoma cells; experiment: In vitro antigen presentation assay, MHC class I (BMDCs + OVA1.3 hybridoma, IL-2 ELISA); assay type: cell-based, mouse; conditions: inhibitor 30 min before coacervates, Bortezomib 10 nM, Brefeldin A 17.8 µM, Lactacystin 50 µM
Source text: parameters across two channels: eGFP and DAPI. Images were captured for each time point (2, 6, […]
deconvoluted using Gen 5 software overlaid to visualize localization. To test the effect of […]
T cell proliferation and functional cytokine production […]
at 1×10^8 cells/mL in EasySep Buffer.

DCs = experiment: DQ-OVA delivery to lysosomes (fluorescence microscopy); assay type: cell-based, mouse; conditions: DCs treated with DQ-OVA coacervates
Procedure: page 13: Flow cytometry The transfected A549 cells were washed with FACS wash buffer (FWB; 1× PBS with 10% […] Cells were washed again with FWB and then resuspended in 100 µl of PBS with eBioscience™ Fixable Viability Dye eFluor™ 506 antibody. The staining was quenched with FWB following a 20 min incubation. The cells were centrifuged, washed 2× times with FWB, and resuspended in 100 µl FWB with CD55 (DAF) Antibody (anti-human; miltenyibiotec Cat#130-126-382). After 20 min, staining was quenched, cells washed twice and resuspended in 200 µl FWB for acquisition. Single-stained cells stained with eFluor™ 506, CD55 (DAF) Antibody, were used as compensation controls. Samples were acquired using an Agilent NovoCyte 3000 flow cytometer. Data were analyzed with FlowJo version 10. […] was quantified as the percentage CD55+ cells, considering untreated cells as the negative control and Lipofectamine treated ones as the positive control. Antigen delivery to lysosomes and inhibitor effects DC 2.4 cells were cultured in RPMI-1640 (Catalog number: 11875093) medium supplemented with 10% FBS, 100 U/mL penicillin, 100 μg/mL streptomycin, and 1 mM sodium pyruvate. Cells were plated in 8-well chamber slides (5000 cells in 200 μL of media) and incubated for 24 h prior to addition of DQ-OVA loaded coacervates for 2 h, 6 h, or 24 h (final DQ-OVA concentration was 2.5 μg/mL). Cells treated with PBS or soluble OVA served as controls. Cells were then washed and fixed using 4% Paraformaldehyde (PFA) for 15 min at RT and permeabilized with 0.1% Triton X-100 for 5 min prior to nuclear staining with Hoechst stain (Catalog number: 62249, Thermo Fischer Scientific; 10 μg/mL). Cells were imaged (60×) on Lionheart FX automated microscope (BioTek Instruments, Inc.) with controlled exposure S13 page 14: parameters across two channels: eGFP and DAPI.

[3] = Dynamic light scattering (DLS) droplet size; assay type: physicochemical; conditions: 1 mM peptide, 1× PBS, pH 7.4; mean of 3 measurements with 14 scans each; identical for each pair of enantiomers
Procedure: Optical microscopy and dynamic light scattering (DLS) […]
Coacervate size was measured using 1 mM
peptide solutions (1×PBS, pH 7.4) on a ZEN 3600 Zetasizer (Malvern Instruments, UK) using
DLS-Zen 0040 specialized cuvettes. The results were reported as the means of three
measurements, with 14 scans for each measurement. […]

Turbidity assay of LLPS = assay type: physicochemical; conditions: 1× PBS pH 7.4, absorbance at 600 nm over 24 h, plate reader
Source text: (§1) Peptide synthesis and purification
The L- and D-enantiomers of (GHGLY)4, (GHGVY)4 and (GHGPY)4 peptides were purchased from GenScript and used without further modification. (GHGAY)4, (GHGFY)4, (GHGIY)4 and (GHGNY)4 were synthesized using standard Fmoc-SPPS chemistry on Rink Amide with Oxyma (Ethyl cyano(hydroxyimino) acetate) and N, N′-diisopropylcarbodiimide (DIC) as coupling agents on a Liberty Blue microwave-assisted synthesizer. Peptides were cleaved using a cocktail of trifluoroacetic acid (TFA), tri-isopropyl silane (TIS), and H2O (95:2.5:2.5) and extracted and washed in cold diethyl ether. The resulting pellet was dissolved in acetonitrile/water mixture (50:50) and frozen prior to lyophilization. Peptides were purified (~90%) using High Performance Liquid Chromatography (HPLC) on a Dionex Ultimate 3000 HPLC equipped with a diode-array detector on an Agilent Poroshell RP-C18 column (4.6 mm×150 mm), operating at a flow rate of 1 mL/min. […]
(§2) Peptide solutions (0.25–1.5 mM) were prepared in 1×PBS at pH 7.4. Aliquots (140 µL) were pipetted into a 96-well plate and absorbance at 600 nm was measured over 24 h using a Synergy HT plate reader (Biotek, USA) at RT or 37°C with or without agitation. The pH dependence of LLPS formation was assessed in 0.1 M potassium phosphate buffer (with 150 mM NaCl) at different pH values (5.8, 6.6, 7.4, 8.0) and 1 mM peptide concentration. […]
NaCl) was used to study ionic strength effects. The absorbance was further converted to turbidity using methods previously described 1 and data was plotted as relative turbidity. […]
Droplets were visualized in 1×PBS using NCI Leica DMC4500 microscope in reflection mode with differential interference contrast. […] Coacervate size was measured using 1 mM peptide solutions (1×PBS, pH 7.4) on a ZEN 3600 Zetasizer (Malvern Instruments, UK) using DLS-Zen 0040 specialized cuvettes. […]
Viscosity of the peptide solutions (1 mM or 2 mM) was tested using an ARES 2000ex rotational rheometer (TA Instruments, New Castle, DE). […] Viscosity was measured as a function

[4] = Encapsulation efficiency measurement; assay type: physicochemical; conditions: 1 mM peptide, 1 µM eGFP in PBS; centrifuged 15,000 × g 10 min; fluorescence of supernatant (λex 395 nm, λem 510 nm)
Procedure: Encapsulation efficiency measurements […]
powders to a final peptide concentration of 1 mM. Cargo concentrations in the stock solutions […]
nm and λem: 519 nm). For small molecule dyes, similar methods were used. The encapsulation efficiency was determined as reported previously 12.
Cellular uptake and antigen presentation assays […]
to addition of OVA-loaded coacervates. Final OVA concentration was 1 µg/mL for time- […]
37°C and complete RPMI media served as controls. Soluble OVA and PBS treated cells were used as controls for antigen delivery.

[5] = Optical microscopy of coacervate formation (LLPS); assay type: physicochemical
Source text: NaCl) was used to study ionic strength effects. The absorbance was further converted to turbidity using methods previously described 1 and data was plotted as relative turbidity.
Optical microscopy and dynamic light scattering (DLS)
Droplets were visualized in 1×PBS using NCI Leica DMC4500 microscope in reflection mode with differential interference contrast. Images were captured with a DMC4500 camera under the control of Leica LAS X software (version 3.4.2). […]

[6] = Critical concentration (Ccrit) of coacervate formation; assay type: physicochemical; conditions: 1× PBS, pH 7.4; enantiomeric variants identical
Source text: as §1
The L- and D-enantiomers of (GHGLY)4, (GHGVY)4 and (GHGPY)4 peptides were purchased from GenScript and used without further modification. (GHGAY)4, (GHGFY)4, (GHGIY)4 and (GHGNY)4 were synthesized using standard Fmoc-SPPS chemistry on Rink Amide with Oxyma (Ethyl cyano(hydroxyimino) acetate) and N, N′-diisopropylcarbodiimide (DIC) as coupling agents on a Liberty Blue microwave-assisted synthesizer. Peptides were cleaved using a cocktail of trifluoroacetic acid (TFA), tri-isopropyl silane (TIS), and H2O (95:2.5:2.5) and extracted and washed in cold diethyl ether. The resulting pellet was dissolved in acetonitrile/water mixture (50:50) and frozen prior to lyophilization. Peptides were purified (~90%) using High Performance Liquid Chromatography (HPLC) on a Dionex Ultimate 3000 HPLC equipped with a diode-array detector on an Agilent Poroshell RP-C18 column (4.6 mm×150 mm), operating at a flow rate of 1 mL/min. Peaks corresponding to 220 nm were collected for MALDI -TOF mass analysis (Shimadzu MALDI-8030) using α-cyno-4-hydroxycinnamic acid matrix (Bruker Daltonics, MA).
as §2, with “concentration. Similarly, 0.1 M potassium phosphate buffer (pH 7.4) with varying salt concent rations (0, 150, 250, 500, 1000 mM” for “concentration.”
Figure S10. Determination of Ccrit for (a) (GHGLY)4, (b) (GHGVY)4, (c) (GHGPY)4 and (d-f) their corresponding enantiomers (1 mM, 1× PBS, pH 7.4).
Table S1. Measured Ccrit values for (GHGXY)4 peptides used in this study.
(1 picture or pasted object on this page, not shown here)

## methyl β-CD
[1]
  effect of endocytosis inhibitor on uptake of coacervates (IL-2): did not significantly impact droplet uptake

## O=C(N/N=C/c1ccc(O)c(O)c1)c1cc2ccccc2cc1O [Dyn, dynasore]
[1]
  effect of endocytosis inhibitor on uptake of coacervates (IL-2): did not significantly impact droplet uptake

## CC(C)C[C@H](NC(=O)[C@H](Cc1ccccc1)NC(=O)c1cnccn1)B(O)O [bortezomib]
[2]
  MHC class I presentation (IL-2 secretion) with MHC-I inhibitor: significantly diminished

## CO/C1=C\C(C)=C\[C@@H](C)[C@@H](O)[C@@H](C)C/C(C)=C/C=C/[C@H](OC)[C@@H]([C@@H](C)[C@@H](O)[C@H](C)[C@@]2(O)C[C@@H](O)[C@H](C)[C@@H](C(C)C)O2)OC1=O [bafilomycin, reference compound]
DCs
  DQ-OVA fluorescence intensity in DCs in the presence of inhibitor: reduced

## CN(C)CCCN1c2ccccc2Sc2ccc(Cl)cc21 [CPZ, chlorpromazine]
[1]
  effect of endocytosis inhibitor on uptake of coacervates (IL-2): did not significantly impact droplet uptake

## (GHGPY)4 [GP 20]
[3]
  droplet size (DLS): ~0.2 μm
Turbidity assay of LLPS
  turbidity over time (A600): no turbidity changes were detected with time
[4]
  eGFP loading efficiency: ~30%
[5]; optical micrographs, 0.1 M potassium phosphate buffer pH 7.4, > 250 mM NaCl
  coacervates at concentrations exceeding 250 mM NaCl: no coacervates were detected
[5]; optical microscopy, 1× PBS, across multiple synthesis batches
  coacervate formation: Consistent coacervate formation
[6]
  critical concentration (Ccrit) of coacervate formation: 1 mM

## COC[C@H]1OC(=O)c2coc3c2[C@@]1(C)C1=C(C3=O)[C@@H]2CCC(=O)[C@@]2(C)C[C@H]1OC(C)=O [wortmannin]
[1]
  effect of endocytosis inhibitor on uptake of coacervates (IL-2): most significant effect on uptake of coacervates

## Cl.N [NH4Cl, reference compound]
DCs
  DQ-OVA fluorescence intensity in DCs in the presence of inhibitor: reduced

## C[C@H]1CCC/C=C/[C@@H]2C[C@H](O)C[C@H]2[C@H](O)/C=C/C(=O)O1 [brefeldin A]
[2]
  MHC class I presentation (IL-2 secretion) with MHC-I inhibitor: significantly diminished

## CC(=O)N[C@@H](CSC(=O)[C@]1([C@@H](O)C(C)C)NC(=O)[C@H](C)[C@@H]1O)C(=O)O [lactacystin]
[2]
  MHC class I presentation (IL-2 secretion) with MHC-I inhibitor: significantly diminished
